Results reported in ChEMBL document CHEMBL5113376, “Antimalarial application of quinones: A recent update” (Eur J Med Chem, 2021).
≈ marks a conversion by molar mass, not a printed value.

Key:
Plasmodium falciparum [1] = assay: Antiplasmodial activity against Chloroquine resistant Plasmodium falciparum FcB1 incubated for 48 hrs; format: functional, organism-based; conditions: FcB1, 48 h
Plasmodium berghei [2] = assay: In vivo antiplasmodial activity against Chloroquine susceptible Plasmodium berghei ANKA infected in CD-1 mouse assessed as decrease in parasitaemia at 30 to 50 mg/kg/day, ip relative to control; format: functional; design: scale not given: the % may be the effect or the level left; conditions: dose 30-50 mg/kg/day
Plasmodium falciparum [3] = assay: Antimalarial activity against Plasmodium falciparum Dd2 treated for 48 hrs followed by hypoxanthine addition; format: functional, organism-based; conditions: Dd2, 48 h
Plasmodium falciparum [4] = assay: Antiplasmodial activity against chloroquine sensitive Plasmodium falciparum F-32 Tanzania incubated for 48 hrs; format: functional, organism-based
Plasmodium falciparum [5] = assay: Antimalarial activity against Plasmodium falciparum; format: functional, organism-based
Plasmodium falciparum [6] = assay: Antimalarial activity against Plasmodium falciparum Dd2 by 96-well microtitre plate method based scintillation counting analysis; format: functional, organism-based
Plasmodium falciparum [7] = assay: Antimalarial activity against Plasmodium falciparum K14 incubated for 42 hrs in presence of 3H-hypoxanthine by top-count microbeta counter analysis; format: functional, organism-based
Plasmodium falciparum [8] = assay: Antiplasmodial activity against Plasmodium falciparum K1; format: functional, organism-based
Plasmodium falciparum [9] = assay: Antiplasmodial activity against Plasmodium falciparum Dd2 incubated for 48 hrs; format: functional, organism-based; conditions: Dd2, 48 h
Plasmodium falciparum [10] = assay: Antiplasmodial activity against Plasmodium falciparum 3D7 incubated for 48 hrs; format: functional, organism-based; conditions: 3D7, 48 h
Plasmodium falciparum [11] = assay: Antimalarial activity against Plasmodium falciparum K1 by 96-well microtitre plate method based scintillation counting analysis; format: functional, organism-based
Plasmodium berghei [12] = assay: Antimalarial activity against Plasmodium berghei; format: functional, organism-based
Plasmodium falciparum [13] = assay: Antimalarial activity against Plasmodium falciparum W2; format: functional, organism-based
Plasmodium falciparum [14] = assay: Antimalarial activity against Plasmodium falciparum D6; format: functional, organism-based
Plasmodium falciparum [15] = assay: Antimalarial activity against Plasmodium falciparum TM91C235; format: functional, organism-based
Plasmodium falciparum [16] = assay: Antiplasmodial activity against Chloroquine resistant Plasmodium falciparum FcB1 incubated for 48 hrs by SYBR green I based fluorescence assay; format: functional, organism-based; conditions: FcB1, 48 h
Plasmodium falciparum [17] = assay: Antimalarial activity against chloroquine sensitive Plasmodium falciparum D10 incubated for 72 hrs by spectrophotometric analysis; format: functional, organism-based; conditions: D10, 72 h
Plasmodium falciparum [18] = assay: Antimalarial activity against chloroquine resistant Plasmodium falciparum W2 incubated for 72 hrs by spectrophotometric analysis; format: functional, organism-based; conditions: W2, 72 h
[19] = Cytotoxicity against HMEC-1 cells treated for 72 hrs by MTT assay; format: toxicity, cell-based; conditions: human
[20] = Cytotoxicity against HMEC-1 cells; format: toxicity, cell-based; conditions: human
Plasmodium falciparum [21] = assay: Antimalarial activity against Plasmodium falciparum D10; format: functional, organism-based
Plasmodium falciparum [22] = assay: Antimalarial activity against Plasmodium falciparum W2 incubated for 24 hrs; format: functional, organism-based; conditions: Plasmodium falciparum, W2, 24 h
A549 = assay: Cytotoxicity against human A549 cells incubated for 24 hrs by MTT assay; format: functional
HepG2 = assay: Cytotoxicity against human HepG2 cells incubated for 24 hrs by MTT assay; format: functional
HEK293 = assay: Cytotoxicity against HEK293 cells incubated for 48 hrs by MTT assay; format: functional; conditions: Homo sapiens
[23] = Cytotoxicity against African green monkey Vero cells; format: toxicity, cell-based; conditions: chlorocebus sabaeus
Plasmodium falciparum [24] = assay: Antimalarial activity against chloroquine resistant Plasmodium falciparum K1 incubated for 72 hrs by SYBR green staining based fluorescence reader method; format: functional, organism-based; conditions: K1, 72 h
[25] = Selectivity index, ratio of CC50 for african green monkey Vero cells to IC50 for Chloroquine resistant Plasmodium falciparum K1; format: toxicity; conditions: read-out: Ratio CC50/IC50

Work on `O=C1C2=C(C(=O)c3ccccc31)[C@H]1OCc3cc4c(cc3[C@H]1CO2)OCO4` yielded an IC50 (Plasmodium falciparum [1]) of 0.28 µM.
`CC1=C(Cc2ccc([N+](=O)[O-])cc2)C(=O)c2ccccc2C1=O` showed an Activity (Plasmodium berghei [2]) of 20.7% and an IC50 (Plasmodium falciparum [3]) of 0.046 µM.
Compound `O=C(Cn1cc(COC2=CC(=O)c3ccccc3C2=O)nn1)c1ccc(-c2ccccc2)cc1` has an IC50 (Plasmodium falciparum [4]) of 1.6 µM.
In the case of `Cc1oc2c(c1C(=O)NC(CCC(N)=O)C(=O)O)C(=O)c1ccccc1C2=O` (configuration not stated), the IC50 (Plasmodium falciparum [5]) is reported as 2 µM.
`Cc1ccc2c(c1)C(=O)c1c(O)ccc(O)c1C2=O` showed an IC50 (Plasmodium falciparum [6]) of 1.63 µg/mL (≈ 6.41 µM).
With `O=C1c2ccccc2C(=O)c2cc(C3C(Oc4ccccc4)C(=O)N3c3cccc4ccccc34)ccc21` (configuration not stated) the IC50 (Plasmodium falciparum [7]) was 41 µM.
`COc1ccc(N2C(=O)C(Oc3ccc(Cl)cc3Cl)C2c2ccc3c(c2)C(=O)c2ccccc2C3=O)cc1` (configuration not stated) showed an IC50 (Plasmodium falciparum [7]) of 47 µM.
Work on `O=C(O)c1cc2c(s1)C(=O)C1=C(C2=O)S(=O)(=O)C=CN1` yielded an IC50 (Plasmodium falciparum [8]) of 0.035 µM.
`Cc1cc2c(c(C3=C(O)C(=O)c4c(O)ccc(O)c4C3=O)c1)C(=O)c1c(O)c3c(c(O)c1C2=O)C=CC(C)(C)O3` gave an IC50 (Plasmodium falciparum [6]) of 1.57 µg/mL (≈ 2.9 µM).
With `C/C=C/C1=C(O)C(=O)c2ccccc2C1=O` the IC50 (Plasmodium falciparum [9]) was 1.6 µM and the IC50 (Plasmodium falciparum [10]) was 1.2 µM.
For `CN(C)c1ccc(N2C(=O)C(Oc3ccccc3)C2c2ccc3c(c2)C(=O)c2ccccc2C3=O)cc1` (configuration not stated), the IC50 (Plasmodium falciparum [7]) was 9 µM.
With `CC1=C(Cc2ccc(F)cc2)C(=O)c2ccccc2C1=O` the Activity (Plasmodium berghei [2]) was 20.7% and the IC50 (Plasmodium falciparum [3]) was 0.046 µM.
Compound `O=C1C=C(OCc2cn(-c3ccccc3)nn2)C(=O)c2ccccc21` has an IC50 (Plasmodium falciparum [4]) of 1.2 µM.
With `O=C(O)c1ccc2c(n1)C(=O)C1=C(C2=O)S(=O)(=O)C=CN1` the IC50 (Plasmodium falciparum [8]) was 0.6 µM.
Compound `COc1cc(O)c(-c2c(C)cc(O)c3c2C(=O)c2ccc([C@H]4c5cccc(O)c5C(=O)c5c(O)cc(C)c(-c6c(O)cc(OC)c(C(C)=O)c6O)c54)c(O)c2C3=O)c(O)c1C(C)=O` (stereo in doubt; 12) has an IC50 (Plasmodium falciparum [11]) of 0.23 µM.
With `C[C@@H](CCCCCC(F)(F)F)CC1=C(O)C(=O)c2ccccc2C1=O` the IC50 (Plasmodium berghei [12]) was 0.017 µM, the IC50 (Plasmodium falciparum [13]) was 0.065 µM and the IC50 (Plasmodium falciparum [14]) was 0.005 µM. For the same compound, the IC50 (Plasmodium falciparum [15]) was 0.084 µM.
With `COc1ccc2c(c1)C1=C(C(=O)C2=O)C(C)(C)C(C)O1` (configuration not stated) the IC50 (Plasmodium falciparum [16]) was 0.58 µM.
Work on `CCCCCC[C@H](C)CC1=C(O)C(=O)c2ccccc2C1=O` yielded an IC50 (Plasmodium berghei [12]) of 0.0962 µM, an IC50 (Plasmodium falciparum [13]) of 0.214 µM and an IC50 (Plasmodium falciparum [14]) of 0.063 µM. It also gave an IC50 (Plasmodium falciparum [15]) of 0.348 µM.
`COc1ccc(N2C(=O)C(Oc3ccc(Cl)cc3)C2c2ccc3c(c2)C(=O)c2ccccc2C3=O)cc1` (configuration not stated) showed an IC50 (Plasmodium falciparum [7]) of 38 µM.
With `COc1cc(OC)c(-c2c(C)cc(O)c3c2C(=O)c2cccc(O)c2C3=O)c(O)c1C(C)=O` the IC50 (Plasmodium falciparum [11]; Plasmodium falciparum, K1) was 0.751 µg/mL.
Work on `CCC1=C(NC(=O)C(C)(C)C)C(=O)C2=C(C1=O)S(=O)(=O)CCN2` yielded an IC50 (Plasmodium falciparum [17]) of 6.15 µM, an IC50 (Plasmodium falciparum [18]) of 6.31 µM and an IC50 at 72 h [19] of over 100 µM.
With `COC1=C(Cc2ccc(OC)cc2)C(=O)C2=C(NCCS2(=O)=O)C1=O` the IC50 [20] was 17.9 µM, the IC50 (Plasmodium falciparum [21]) was 1.22 µM and the IC50 (Plasmodium falciparum [13]) was 1.21 µM.
`CC1(C)OC2=C(CC1I)C(=O)C(=O)c1ccccc12` (configuration not stated) showed an IC50 (Plasmodium falciparum [22]) of 15.8 µM.
With `COC1=C(Cc2ccc(Cl)cc2)C(=O)C2=C(NCCS2(=O)=O)C1=O` the IC50 [20] was 8.51 µM, the IC50 (Plasmodium falciparum [21]) was 1.9 µM and the IC50 (Plasmodium falciparum [13]) was 1.63 µM.
With `CNCCCCNCCCNC(=O)c1c(C)oc2c1C(=O)c1ccccc1C2=O` the IC50 (Plasmodium falciparum [5]) was 0.05 µM.
Compound `CN(C)c1ccc(N2C(=O)C(Oc3ccc(Cl)cc3Cl)C2c2ccc3c(c2)C(=O)c2ccccc2C3=O)cc1` (configuration not stated) has an IC50 (Plasmodium falciparum [7]) of 48 µM.
In the case of `COc1cc(O)c(-c2c(C)cc(O)c3c2C(=O)c2ccc([C@H]4c5cccc(O)c5C(=O)c5c(O)cc(C)c(-c6c(O)cc(OC)c(C(C)=O)c6O)c54)c(O)c2C3=O)c(O)c1C(C)=O` (stereo in doubt; 11), the IC50 (Plasmodium falciparum [11]; Plasmodium falciparum, K1) is reported as 0.14 µM.
`O=C1C=C(OCc2cn(/C=C/c3ccc(C(F)(F)F)cc3)nn2)C(=O)c2ccccc21` gave an IC50 (Plasmodium falciparum [4]) of 3.3 µM.
`COC1=C(Cc2ccc(OC(F)(F)F)cc2)C(=O)C2=C(NCCS2(=O)=O)C1=O` gave an IC50 [20] of 3.59 µM, an IC50 (Plasmodium falciparum [21]) of 0.81 µM and an IC50 (Plasmodium falciparum [13]) of 1.12 µM.
In the case of `CC1(C)CCC2=C(O1)c1ccccc1C(=O)C2=O` [LAPACHONE], the CC50 (A549) is reported as 2.09 µM, the CC50 (HepG2) is reported as 2.09 µM and the IC50 (Plasmodium falciparum [22]) is reported as 20.5 µM.
For `O=C1c2ccccc2C(=O)c2cc(C3C(Oc4ccc5ccccc5c4)C(=O)N3c3cccc4ccccc34)ccc21` (configuration not stated), the IC50 (Plasmodium falciparum [7]) was 39 µM.
Work on `O=C1C(O)=C([C@H]2CC[C@H](c3ccc(Cl)cc3)CC2)C(=O)c2ccccc21` [ATOVAQUONE] yielded a CC50 (HEK293) of 0.049 µM, an IC50 (Plasmodium berghei [12]) of 0.0197 µM and an IC50 (Plasmodium falciparum [13]) of 0.001 µM. It also gave an IC50 (Plasmodium falciparum [14]) of 0.00034 µM.
`Cc1cc(O)c2c(c1)C(=O)c1cc(O)c(CN3CCN(C)CC3)c(O)c1C2=O` showed a CC50 [23] of 782 µM, an IC50 (Plasmodium falciparum [24]) of 2.48 µM and a selectivity ratio [25] of 315.
